The values below come from patent publication US5942508A, “Method for solubilizing pyridonecarboxylic acid solubilizer thereof and aqueous solution containing solubilized pyridonecarboxylic acid” (Senju Pharmaceutical Co., Ltd., priority 1997, dated 1999).

Data set [1] in a line: Increase of solubility by addition of arylcarboxylic acid (Tables 1 to 3). It is filed as physicochemical. The conditions noted are these: about, addition of at least one arylcarboxylic acid (pranoprofen, ibuprofen, diclofenac, bromfenac, 2-naphthoic, 2-naphthylacetic, 2-naphthoxyacetic acid). The protocol: (§1) To a 0.1% aqueous sodium dihydrogenphosphate solution (100 ml) containing pranoprofen, ibuprofen or bromfenac was added norfloxacin or enoxacin in excess, and the pH thereof was adjusted to 7-8 with hydrochloric acid or sodium hydroxide. The mixture was shaken for one week at 25° C. and filtered through a 0.45 μm membrane filter, which was followed by the determination of a norfloxacin or enoxacin content by high performance liquid chromatography.
(§2) To a 0.1% aqueous sodium dihydrogenphosphate solution (100 ml) containing 2-naphthoic acid, 2-naphthylacetic acid or 2-naphthoxyacetic acid was added norfloxacin or enoxacin in excess, and the pH thereof was adjusted to 8-9 with hydrochloric acid or sodium hydroxide. The mixture was shaken for one week at 25° C. and filtered through a 0.45 μm membrane filter, which was followed by the determination of a norfloxacin or enoxacin content by high performance liquid chromatography.
(§3) To a 0.1% aqueous sodium dihydrogenphosphate solution (100 ml) containing pranoprofen, ibuprofen, diclofenac, bromfenac, 2-naphthoic acid, 2-naphthylacetic acid or 2-naphthoxyacetic acid was added lomefloxacin in excess, and the pH thereof was adjusted to 8-9 with hydrochloric acid or sodium hydroxide. The mixture was shaken for one week at 25° C. and filtered through a 0.45 μm membrane filter, which was followed by the determination of a lomefloxacin content by high performance liquid chromatography.

Data set [2] is described as follows: Effect of arylcarboxylic acid on solubility of pyridonecarboxylic acid - 3 (Table 3). It is filed as physicochemical. As to conditions: 0.1% aqueous sodium dihydrogenphosphate, 25° C., one week. The protocol:
Experimental Example 3: Effect of arylcarboxylic acid on solubility of pyridonecarboxylic acid - 3
as §3

Data set [3] is described as follows: Effect of arylcarboxylic acid on solubility of pyridonecarboxylic acid - 1 (Table 1). It is filed as physicochemical. As to conditions: 0.1% aqueous sodium dihydrogenphosphate, 25° C., one week. The protocol: Experimental Example 1: Effect of arylcarboxylic acid on solubility of pyridonecarboxylic acid - 1
as §1

The nature of data set [4]: Effect of arylcarboxylic acid on solubility of pyridonecarboxylic acid - 2 (Table 2). It is filed as physicochemical. As to conditions: 0.1% aqueous sodium dihydrogenphosphate, 25° C., one week. The protocol:
Experimental Example 2: Effect of arylcarboxylic acid on solubility of pyridonecarboxylic acid - 2
as §2

Setting [5] is: pH 8, 2-naphthoic acid added, pH 8, 0.1% aqueous sodium dihydrogenphosphate.
The mark [6] stands for this setting: pH 8, 2-naphthoxyacetic acid added, pH 8, 0.1% aqueous sodium dihydrogenphosphate.
Where [7] appears, read: pH 8, 2-naphthylacetic acid added, pH 8, 0.1% aqueous sodium dihydrogenphosphate.
[8] abbreviates: pH 8, pranoprofen added, pH 8, 0.1% aqueous sodium dihydrogenphosphate.
Setting [9] is: pH 8, without addition, pH 8, 0.1% aqueous sodium dihydrogenphosphate.
The mark [10] stands for this setting: pH 9, without addition, pH 9, 0.1% aqueous sodium dihydrogenphosphate.
Setting [11] is: pH 7, bromfenac added, pH 7, 0.1% aqueous sodium dihydrogenphosphate.
Where [12] appears, read: pH 7, ibuprofen added, pH 7, 0.1% aqueous sodium dihydrogenphosphate.
Setting [13] is: pH 7, pranoprofen added, pH 7, 0.1% aqueous sodium dihydrogenphosphate.
[14] abbreviates: pH 7, without addition, pH 7, 0.1% aqueous sodium dihydrogenphosphate.
[15] abbreviates: pH 8, bromfenac added, pH 8, 0.1% aqueous sodium dihydrogenphosphate.
Setting [16] is: pH 8, ibuprofen added, pH 8, 0.1% aqueous sodium dihydrogenphosphate.
Where [17] appears, read: pH 9, 2-naphthoic acid added, pH 9, 0.1% aqueous sodium dihydrogenphosphate.
Setting [18] is: pH 9, 2-naphthoxyacetic acid added, pH 9, 0.1% aqueous sodium dihydrogenphosphate.
Setting [19] is: pH 9, 2-naphthylacetic acid added, pH 9, 0.1% aqueous sodium dihydrogenphosphate.

Converted amounts (≈) assume the structure as drawn.

One may read the solubility (thermodynamic) as the concentration in solution at equilibrium with solid. As for `CCn1cc(C(=O)O)c(=O)c2cc(F)c(N3CCNC(C)C3)c(F)c21` (stereo not shown) [lomefloxacin, 1-ethyl-6,8-difluoro-1,4-dihydro-7-(3-methyl-1-piperazinyl)-4-oxo-3-quinolinecarboxylic acid], the “increase of solubility by addition of arylcarboxylic acid” value (“increase of solubility” below) in data set [1] was 1.5-3 times. Besides, the thermodynamic solubility at 168 h in data set [2] (setting [5]) is 2300 µg/mL (≈ 6550 µM); in data set [2] (setting [6]) it was 2040 µg/mL (≈ 5810 µM); in data set [2] (setting [7]), 1800 µg/mL (≈ 5120 µM); in data set [2] (pH 8, diclofenac added, pH 8, 0.1% aqueous sodium dihydrogenphosphate) it was 1390 µg/mL (≈ 3960 µM); in data set [2] (setting [8]), 2140 µg/mL (≈ 6090 µM); in data set [2] (setting [9]), 1180 µg/mL (≈ 3360 µM). Further, the solubility (thermodynamic) at 168 h in data set [2] (pH 9, bromfenac added, pH 9, 0.1% aqueous sodium dihydrogenphosphate) was 4700 µg/mL (≈ 13400 µM); in data set [2] (pH 9, diclofenac added, pH 9, 0.1% aqueous sodium dihydrogenphosphate), 3330 µg/mL (≈ 9480 µM); in data set [2] (pH 9, ibuprofen added, pH 9, 0.1% aqueous sodium dihydrogenphosphate), 3500 µg/mL (≈ 9960 µM); in data set [2] (setting [10]) it was 3000 µg/mL (≈ 8540 µM).
For orientation: solubility means the dissolved amount per volume that the medium holds. For `CCn1cc(C(=O)O)c(=O)c2cc(F)c(N3CCNCC3)nc21` [enoxacin, 1-ethyl-6-fluoro-1,4-dihydro-4-oxo-7-(1-piperazinyl)-1,8-naphthyridine-3-carboxylic acid], the “increase of solubility” value in data set [1] is reported as 1.5-3 times. For the same compound, the solubility in “physchem” (0.1% phosphate buffer, pH 7) worked out at 280 µg/mL (≈ 874 µM); in the data set “physchem” (1.6% borate buffer, pH 6) it was 1700 µg/mL (≈ 5310 µM). For the same compound, the thermodynamic solubility at 168 h was 320 µg/mL (≈ 999 µM) in data set [3] (setting [11]); 300 µg/mL (≈ 937 µM) in data set [3] (setting [12]); 780 µg/mL (≈ 2440 µM) in data set [3] (setting [13]); 260 µg/mL (≈ 812 µM) in data set [3] (setting [14]); 350 µg/mL (≈ 1090 µM) in data set [3] (setting [15]); 280 µg/mL (≈ 874 µM) in data set [3] (setting [16]). Moreover, the thermodynamic solubility at 168 h in data set [3] (setting [8]) worked out at 630 µg/mL (≈ 1970 µM); in data set [3] (setting [9]), 250 µg/mL (≈ 780 µM); in data set [4] (setting [5]), 540 µg/mL (≈ 1690 µM); in data set [4] (setting [6]), 470 µg/mL (≈ 1470 µM); in data set [4] (setting [7]), 420 µg/mL (≈ 1310 µM); in data set [4] (setting [9]), 250 µg/mL (≈ 780 µM). Besides, the solubility (thermodynamic) at 168 h in data set [4] (setting [17]) is 1190 µg/mL (≈ 3710 µM); in data set [4] (setting [18]) it was 990 µg/mL (≈ 3090 µM); in data set [4] (setting [19]), 830 µg/mL (≈ 2590 µM); in data set [4] (setting [10]) it was 710 µg/mL (≈ 2220 µM).
Regarding `CCn1cc(C(=O)O)c(=O)c2cc(F)c(N3CCNCC3)cc21` [norfloxacin, 1-ethyl-6-fluoro-1,4-dihydro-4-oxo-7-(1-piperazinyl)-3-quinolinecarboxylic acid], in data set [1], the “increase of solubility” value was 1.5-3 times. Moreover, the solubility in the data set “physchem” (0.1% phosphate buffer, pH 8) was 360 µg/mL (≈ 1130 µM); in “physchem” (1.6% borate buffer, pH 7) it was 390 µg/mL (≈ 1220 µM). Further, the solubility (thermodynamic) at 168 h in data set [3] (setting [11]) came to 410 µg/mL (≈ 1280 µM); in data set [3] (setting [12]), 430 µg/mL (≈ 1350 µM); in data set [3] (setting [13]), 1810 µg/mL (≈ 5670 µM); in data set [3] (setting [14]) it was 400 µg/mL (≈ 1250 µM); in data set [3] (setting [15]), 540 µg/mL (≈ 1690 µM); in data set [3] (setting [16]) it was 420 µg/mL (≈ 1320 µM). The thermodynamic solubility at 168 h in data set [3] (setting [8]) was 810 µg/mL (≈ 2540 µM); in data set [3] (setting [9]) it was 360 µg/mL (≈ 1130 µM); in data set [4] (setting [5]) it was 920 µg/mL (≈ 2880 µM); in data set [4] (setting [6]), 750 µg/mL (≈ 2350 µM); in data set [4] (setting [7]), 580 µg/mL (≈ 1820 µM); in data set [4] (setting [9]), 360 µg/mL (≈ 1130 µM). Besides, the solubility (thermodynamic) at 168 h amounted to 1590 µg/mL (≈ 4980 µM) in data set [4] (setting [17]), 1600 µg/mL (≈ 5010 µM) in data set [4] (setting [18]), 2060 µg/mL (≈ 6450 µM) in data set [4] (setting [19]) and 1060 µg/mL (≈ 3320 µM) in data set [4] (setting [10]).
